Marks after values point to notes of the source that are not given here.
Experiments:
[1] = system: New Zealand White rabbits; assay: Re-endothelialization and vascular reactivity after aortic balloon injury in rabbits; format: in vivo; conditions: for Endothelium-dependent relaxation (acetylcholine) / Tissue content of cGMP in response to acetylcholine: aortic rings six weeks after injury; for Endothelium-dependent relaxation (acetylcholine): FIG. 15c; for Tissue content of cGMP in response to acetylcholine: FIG. 15d; for Regeneration of endothelium (length covered by CD31+ cells) / Intima-to-media ratio at CD31-positive sites: six weeks after injury; for Regeneration of endothelium (length covered by CD31+ cells): FIG. 15b; for Intima-to-media ratio at CD31-positive sites: not shown
[2] = Total aortic drug concentration in apoE−/− mice, 5 months; format: in vivo
Source text: ApoE−/− mouse model. Four groups of male apoE−/− mice (8-10 weeks, Animal Resources Centre, Perth, Australia) were fed a high fat diet based on Harlan Teklad diet TD88137±1% (wt/wt) probucol (96% purity, a gift from AstraZeneca, Sweden), 0.02% DTBP, or 0.02% BP (Polysciences, Warrington, Pa.) for 5 months. Tissue harvesting and analyses were done as described in Examples 1 and 3, using 15 and 10 mice of each group for biochemical and histological analyses, respectively. Histology and immunohistochemistry. Aortic lesion assessment was carried out at four sites (sinus, arch, thoracic and abdominal aorta) as described in Example 1. Immediately adjacent sections were employed for immunohistochemistry, using Mac-3 (macrophages, dilution 1:200, DAKO), PCNA (cell proliferation, dilution 1:500, DAKO) and anti-rat HO-1 monoclonal antibody (dilution 1:50, Santa Cruz) with avidin-biotin-horseradish peroxidase for signal detection (Vectorstain Elite ABC Kit, Vector Laboratories). Apoptosis was assessed using the TUNEL assay kit (Roche) according to the manufacture's instructions. Digital images were taken for quantitative morphometric analysis. Mac-3^+ areas were determined using Adobe Photoshop V6.0 by tracing. Total cell profiles, TUNEL^+ and PCNA^+ cells were counted manually at high magnification (40× objective). A single operator using coded samples performed all analyses blinded. Heme oxygenase. Heme oxygenase activity was determined in microsomes prepared from homogenized aortic tissue and assessed by HPLC as described in Circulation 2004, 110: 1855-1860. Statistics. All data are expressed as mean±SEM. One-way ANOVA and the student-Newman-Keul's test were used to evaluate differences between groups, with P<0.05 considered significant.

[3] = system: New Zealand White rabbits; assay: Rabbit aortic balloon-injury model with heme oxygenase blocked by tin protoporphyrin; format: in vivo; conditions: plus tin protoporphyrin 7.5 mg/kg i.p. every other day; for Ability to inhibit intimal thickening when heme oxygenase is blocked: nine weeks, FIG. 19a; for Ability to promote re-endothelialization when heme oxygenase is blocked: FIG. 19b; for Ability to inhibit vascular smooth muscle cell proliferation when heme oxygenase is blocked: FIG. 19c
Description: Inhibition of heme oxygenase activity. Three groups of male New Zealand White rabbits (n=6 per group) that were fed 100 g per day of normal chow±1% probucol or 0.02% DTBP (wt/wt) received intraperitoneal injection of tin protoporphyrin (SnPP, Frontier Scientific, 7.5 mg/kg) every other day as described in American Journal of Physiology, Heart and Circulatory Physiology 2000; 278:H623-H632 for the entire nine week duration of the experiment, with balloon injury at the end of week three and lesion assessment after a further six weeks.

apoE−/− mice = assay: Histology of lesions: total cells, macrophages (F4/80), extra-cellular matrix (collagen) in apoE−/− mice; format: in vivo; conditions: for % ECM of total lesion area / % Mφ of total lesion area / ECM area / Lesion area (extra-cellular matrix series) / Lesion area (macrophage series) / Mφ area / Lesion area (total cell density series) / Total cells/μm^2 / Total number of cells: mean ± SD
Source text: The materials and methods used were essentially as described under Example 1. In addition, for total cell numbers, nuclei were counted in hematoxylin and eosin-stained sections and expressed per lesion area. At the sinus, sections were taken ˜200 μm from the first appearance of the leaflets. Sections at the thoracic and abdominal aorta were taken at the branch point of the 3rd pair of intra-costal arteries and the celiac artery, respectively. For macrophages, 4 μm paraffin sections were deparaffinized, rehydrated and endogenous peroxidase quenched with 3% hydrogen peroxide (15 min). Enzymatic antigen retrieval was performed in trypsin (1 mg/mL) solutions pH 7.7 containing 4 mM CaCl2 and 200 mM Tris for 30 min at 37° C., followed by a 20 min incubation in 5% normal rabbit blocking serum. Sections were then incubated overnight in a humidified chamber and at 4° C. with monoclonal rat-anti-mouse F4/80 antibody (Caltag Laboratories; dilution 1:20), followed by biotinylated rabbit anti-rat IgG (Vector Laboratories; dilution 1:200, 30 min), Vectorstain Elite ABC reagent (Vectorstain Elite ABC Kit, Vector Laboratories; 30 min), and 3,3′-diaminobenzidine substrate-chromogen (Dako Corporation) with counterstaining using Harris hematoxylin. Images were captured using a Zeiss Axiophot Photomicroscope, and the area staining positive for F4/80 antigen expressed as a percentage of the total lesion area. Collagen was determined as described in Histochemical Journal 1979, 11:447-455. Briefly, 4 μm sections were deparaffinized, rehydrated and stained with 0.1% Sirius red (Fast red F3B) in saturated aqueous picric acid (pH 2.0) for 1 h at room temperature and then transferred to a solution of 0.01 N HCl for 2 min followed by counterstaining in Harris hematoxylin for 1 min. Total lesion area were measured from bright field images captured with an Olympus BX60 photomicroscope attached with a SPOT digital camera, whereas the birefringent area staining positive for Sirius red was detected using polarization microscopy and expressed as a percentage of the total lesion area at that site.

[4] = mouse, in vivo
Description: The quantity of probucol, BP, and DPQ in aortic homogenates was determined by gradient reverse-phase high-pressure liquid chromatography (HPLC) as described in FASEB Journal 1999, 13:667-675.

[5] = descending aorta, versus control

SMILES: CC(C)(C)c1cc(SSc2cc(C(C)(C)C)c(O)c(C(C)(C)C)c2)cc(C(C)(C)C)c1O [DTBP, 4,4′-dithiobis(2,6-di-tert-butyl-phenol)]
- Endothelium-dependent relaxation (acetylcholine) [1]: enhanced
- Tissue content of cGMP in response to acetylcholine [1]: enhanced
- Regeneration of endothelium (length covered by CD31+ cells) [1]: significantly enhanced
- Intima-to-media ratio at CD31-positive sites [1]: significantly decreased
- Total aortic drug concentration ([2]; male, apoE−/−, mouse, in vivo, 5 months): 7.1±1.4 nmol/mg protein
- Bioavailability relative to probucol ([2]; mouse, in vivo): clearly superior bioavailability compared to probucol
- Ability to inhibit intimal thickening when heme oxygenase is blocked [3]: completely prevented
- Ability to promote re-endothelialization when heme oxygenase is blocked [3]: completely prevented
- Ability to inhibit vascular smooth muscle cell proliferation when heme oxygenase is blocked [3]: completely prevented

SMILES: CC(C)(Sc1cc(C(C)(C)C)c(O)c(C(C)(C)C)c1)Sc1cc(C(C)(C)C)c(O)c(C(C)(C)C)c1 [probucol]
- Endothelium-dependent relaxation (acetylcholine) [1]: enhanced
- Tissue content of cGMP in response to acetylcholine [1]: enhanced
- Regeneration of endothelium (length covered by CD31+ cells) [1]: significantly enhanced
- Intima-to-media ratio at CD31-positive sites [1]: significantly decreased
- Total aortic drug concentration ([2]; apoE−/− mice, high fat diet 5 months, 1% probucol, 0.02% DTBP, 0.02% BP): 21.8±8.4 nmol/mg protein
- Ability to inhibit intimal thickening when heme oxygenase is blocked [3]: completely prevented
- Ability to promote re-endothelialization when heme oxygenase is blocked [3]: completely prevented
- Ability to inhibit vascular smooth muscle cell proliferation when heme oxygenase is blocked [3]: completely prevented
- % ECM of total lesion area (apoE−/− mice; Sinus, n = 6): 66±13%
- % Mφ of total lesion area (apoE−/− mice; Sinus, n = 6): 14 ± 5^a %
- ECM area (apoE−/− mice; Sinus, n = 6): 577 ± 126^a μm^2 × 10^−3
- Lesion area (extra-cellular matrix series) (apoE−/− mice; Sinus, n = 6): 878 ± 153^a μm^2 × 10^−3
- Lesion area (macrophage series) (apoE−/− mice; Sinus, n = 6): 886 ± 89^a μm^2 × 10^−3
- Mφ area (apoE−/− mice; Sinus, n = 6): 127 ± 53 ^ μm^2 × 10^−3
- % ECM of total lesion area (apoE−/− mice; Sinus, n = 6, listed as Probucol): 66 ± 13^a %
- Lesion area (total cell density series) (apoE−/− mice; Sinus, n = 8): 889 ± 254^a μm^2 × 10^−3
- Total cells/μm^2 (apoE−/− mice; Sinus, n = 8): 1.7 ± 0.6^a cells/μm^2
- Total number of cells (apoE−/− mice; Sinus, n = 8): 1423 ± 441 ^
- % ECM of total lesion area (apoE−/− mice; T/A, n = 6): 0.0 ± 0.0^a %
- % Mφ of total lesion area (apoE−/− mice; T/A, n = 6): 99.4 ± 1.4 ^ %
- ECM area (apoE−/− mice; T/A, n = 6): 0.0 ± 0.0^a μm^2 × 10^−3
- Lesion area (extra-cellular matrix series) (apoE−/− mice; T/A, n = 6): 13 ± 3^a μm^2 × 10^−3
- Lesion area (macrophage series) (apoE−/− mice; T/A, n = 6): 22 ± 15^a μm^2 × 10^−3
- Lesion area (total cell density series) (apoE−/− mice; T/A, n = 6): 22 ± 15^a μm^2 × 10^−3
- Mφ area (apoE−/− mice; T/A, n = 6): 21 ± 12^a μm^2 × 10^−3
- Total cells/μm^2 (apoE−/− mice; T/A, n = 6): 0.36 ± 0.39^ cells/μm^2
- Total number of cells (apoE−/− mice; T/A, n = 6): 10 ± 13^a
- Decrease in macrophages (apoE−/− mice; [5]): ~91%
- Decrease in total cell numbers (apoE−/− mice; [5]): ~91%
- Decrease in percentage of lesion area covered by macrophages (apoE−/− mice; sinus, versus control): ~50%
- Metabolites (BP and DPQ) relative to parent drug [4]: nearly one third of the drug

Reference: patent US20100004333A1, “COMPOSITIONS AND METHODS FOR TREATING CARDIOVASCULAR DISORDERS” (priority 2004, published 2010)
